Source: ChEMBL document CHEMBL5291721, “A preclinical secondary pharmacology resource illuminates target-adverse drug reaction associations of marketed drugs” (Nat Commun, 2023)
One block for each compound: values may come before it.

Tests used:
[1] = molecular target: T1, Alpha-1A adrenergic receptor (Homo sapiens, UniProt P35348); format: functional, cell-based
T1 sequence (P35348 whole entry): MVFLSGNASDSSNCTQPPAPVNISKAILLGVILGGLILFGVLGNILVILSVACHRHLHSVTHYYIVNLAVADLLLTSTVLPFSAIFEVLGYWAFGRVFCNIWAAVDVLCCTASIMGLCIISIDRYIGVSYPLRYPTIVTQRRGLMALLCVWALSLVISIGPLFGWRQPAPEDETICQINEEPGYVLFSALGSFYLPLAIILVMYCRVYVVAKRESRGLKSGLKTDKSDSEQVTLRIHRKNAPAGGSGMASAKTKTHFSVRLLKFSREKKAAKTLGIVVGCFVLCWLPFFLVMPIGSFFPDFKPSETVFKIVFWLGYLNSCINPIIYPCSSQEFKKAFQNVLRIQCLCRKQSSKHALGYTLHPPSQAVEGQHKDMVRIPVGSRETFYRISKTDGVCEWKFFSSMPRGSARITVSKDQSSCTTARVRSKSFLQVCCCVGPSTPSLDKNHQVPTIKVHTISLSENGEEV

[2] = molecular target: T1, Alpha-1A adrenergic receptor; format: functional, cell-based; remark: listed apart in the source
Glucocorticoid receptor = molecular target: T2, Glucocorticoid receptor (Homo sapiens, UniProt P04150); format: functional
T2 sequence (P04150 whole entry): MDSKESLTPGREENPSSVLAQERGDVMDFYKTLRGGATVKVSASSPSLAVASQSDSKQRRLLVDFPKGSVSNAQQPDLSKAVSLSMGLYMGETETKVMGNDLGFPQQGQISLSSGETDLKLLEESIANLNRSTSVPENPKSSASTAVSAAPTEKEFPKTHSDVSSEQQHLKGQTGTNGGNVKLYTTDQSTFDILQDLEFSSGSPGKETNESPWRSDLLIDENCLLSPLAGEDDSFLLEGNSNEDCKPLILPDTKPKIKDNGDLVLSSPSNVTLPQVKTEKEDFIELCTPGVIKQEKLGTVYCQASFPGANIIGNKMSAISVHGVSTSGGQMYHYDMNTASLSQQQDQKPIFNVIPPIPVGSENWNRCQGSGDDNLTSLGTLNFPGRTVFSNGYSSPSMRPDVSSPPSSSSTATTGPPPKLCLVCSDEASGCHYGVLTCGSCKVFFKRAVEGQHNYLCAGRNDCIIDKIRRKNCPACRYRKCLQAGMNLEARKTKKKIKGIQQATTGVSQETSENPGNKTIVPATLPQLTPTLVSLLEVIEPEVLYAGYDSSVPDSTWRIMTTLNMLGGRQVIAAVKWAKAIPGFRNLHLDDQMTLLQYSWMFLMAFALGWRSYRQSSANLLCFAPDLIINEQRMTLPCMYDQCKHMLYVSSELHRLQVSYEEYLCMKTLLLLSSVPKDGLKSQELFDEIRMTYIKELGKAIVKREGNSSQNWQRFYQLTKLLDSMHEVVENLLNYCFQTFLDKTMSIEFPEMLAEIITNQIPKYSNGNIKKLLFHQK

[3] = molecular target: T3, Prostaglandin G/H synthase 1 (Rattus norvegicus, UniProt Q63921); format: functional
T3 sequence (Q63921 whole entry): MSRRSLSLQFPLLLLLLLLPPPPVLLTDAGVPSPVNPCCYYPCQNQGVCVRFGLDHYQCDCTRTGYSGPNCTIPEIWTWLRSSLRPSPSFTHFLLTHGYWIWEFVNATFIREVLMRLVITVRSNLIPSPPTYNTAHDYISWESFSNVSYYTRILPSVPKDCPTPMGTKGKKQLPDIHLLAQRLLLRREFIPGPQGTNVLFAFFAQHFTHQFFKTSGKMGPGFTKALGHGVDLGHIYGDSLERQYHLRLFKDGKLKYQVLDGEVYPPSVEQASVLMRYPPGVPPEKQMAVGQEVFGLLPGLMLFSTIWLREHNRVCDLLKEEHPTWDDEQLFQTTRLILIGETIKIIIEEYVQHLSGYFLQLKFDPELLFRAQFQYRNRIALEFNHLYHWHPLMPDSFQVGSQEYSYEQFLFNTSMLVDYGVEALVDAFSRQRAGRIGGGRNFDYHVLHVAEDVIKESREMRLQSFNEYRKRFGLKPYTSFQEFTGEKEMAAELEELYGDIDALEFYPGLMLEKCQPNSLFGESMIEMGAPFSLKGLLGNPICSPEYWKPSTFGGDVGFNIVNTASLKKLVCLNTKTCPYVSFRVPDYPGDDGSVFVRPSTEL

[4] = molecular target: Gamma-aminobutyric acid receptor subunit alpha-1/alpha-2/beta-2/gamma-2 (Homo sapiens, UniProt P14867+P47870+P18507+P47869); format: functional, cell-based
[5] = molecular target: T4, Muscarinic acetylcholine receptor M1 (Homo sapiens, UniProt P11229)
T4 sequence (P11229 whole entry): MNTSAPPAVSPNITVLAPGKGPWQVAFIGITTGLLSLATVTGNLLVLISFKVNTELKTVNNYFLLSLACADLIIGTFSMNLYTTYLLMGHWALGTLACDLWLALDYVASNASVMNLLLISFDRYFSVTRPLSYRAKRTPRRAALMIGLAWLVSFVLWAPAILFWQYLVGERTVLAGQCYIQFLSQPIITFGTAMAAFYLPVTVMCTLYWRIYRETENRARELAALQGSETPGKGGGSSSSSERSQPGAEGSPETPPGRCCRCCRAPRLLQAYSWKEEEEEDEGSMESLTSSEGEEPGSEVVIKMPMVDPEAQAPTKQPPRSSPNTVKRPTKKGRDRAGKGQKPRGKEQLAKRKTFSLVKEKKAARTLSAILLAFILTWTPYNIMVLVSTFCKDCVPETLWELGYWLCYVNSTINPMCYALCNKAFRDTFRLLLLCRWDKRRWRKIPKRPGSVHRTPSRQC
Also: assay procedure not described here.

Chain of Gamma-aminobutyric acid receptor subunit alpha-1/alpha-2/beta-2/gamma-2 (P14867 whole entry): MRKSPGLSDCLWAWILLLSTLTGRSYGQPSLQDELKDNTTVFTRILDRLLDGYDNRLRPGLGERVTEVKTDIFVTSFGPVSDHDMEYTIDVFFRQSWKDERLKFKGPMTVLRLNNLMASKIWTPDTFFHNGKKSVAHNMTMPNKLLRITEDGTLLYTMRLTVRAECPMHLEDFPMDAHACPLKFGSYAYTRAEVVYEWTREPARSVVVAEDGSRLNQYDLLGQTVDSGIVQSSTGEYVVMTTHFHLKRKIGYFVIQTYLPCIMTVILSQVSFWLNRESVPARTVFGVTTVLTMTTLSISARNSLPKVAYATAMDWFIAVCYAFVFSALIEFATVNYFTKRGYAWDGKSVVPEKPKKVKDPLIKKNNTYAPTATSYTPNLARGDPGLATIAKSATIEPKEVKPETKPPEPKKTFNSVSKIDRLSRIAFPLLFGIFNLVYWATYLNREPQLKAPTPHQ
Chain of Gamma-aminobutyric acid receptor subunit alpha-1/alpha-2/beta-2/gamma-2 (P47870 whole entry): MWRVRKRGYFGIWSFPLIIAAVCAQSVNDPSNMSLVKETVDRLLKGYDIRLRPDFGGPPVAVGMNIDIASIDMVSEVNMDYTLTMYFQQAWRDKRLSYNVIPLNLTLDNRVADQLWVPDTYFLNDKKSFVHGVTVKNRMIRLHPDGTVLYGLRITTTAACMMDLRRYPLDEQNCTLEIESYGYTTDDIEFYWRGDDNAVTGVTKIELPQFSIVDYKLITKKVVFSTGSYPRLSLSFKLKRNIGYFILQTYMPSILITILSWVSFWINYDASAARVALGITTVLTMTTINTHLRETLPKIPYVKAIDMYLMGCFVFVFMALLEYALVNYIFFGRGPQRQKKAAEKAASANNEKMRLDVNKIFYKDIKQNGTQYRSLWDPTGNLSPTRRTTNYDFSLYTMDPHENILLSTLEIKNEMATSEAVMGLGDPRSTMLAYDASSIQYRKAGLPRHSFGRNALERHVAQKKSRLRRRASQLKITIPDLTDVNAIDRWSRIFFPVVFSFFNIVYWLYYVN
Chain of Gamma-aminobutyric acid receptor subunit alpha-1/alpha-2/beta-2/gamma-2 (P18507 whole entry): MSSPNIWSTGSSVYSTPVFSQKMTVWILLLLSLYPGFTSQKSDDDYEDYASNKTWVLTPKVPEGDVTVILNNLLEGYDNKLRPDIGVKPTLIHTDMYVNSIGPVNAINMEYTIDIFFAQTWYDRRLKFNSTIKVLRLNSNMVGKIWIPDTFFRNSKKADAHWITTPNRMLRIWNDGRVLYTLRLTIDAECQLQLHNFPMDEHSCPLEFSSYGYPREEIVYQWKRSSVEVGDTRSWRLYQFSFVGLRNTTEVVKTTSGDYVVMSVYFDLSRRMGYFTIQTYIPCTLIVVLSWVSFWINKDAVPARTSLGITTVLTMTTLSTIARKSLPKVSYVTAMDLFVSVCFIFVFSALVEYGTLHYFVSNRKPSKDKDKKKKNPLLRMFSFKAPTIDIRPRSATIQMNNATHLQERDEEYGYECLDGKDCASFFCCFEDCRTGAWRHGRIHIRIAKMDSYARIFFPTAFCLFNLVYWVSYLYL
Chain of Gamma-aminobutyric acid receptor subunit alpha-1/alpha-2/beta-2/gamma-2 (P47869 whole entry): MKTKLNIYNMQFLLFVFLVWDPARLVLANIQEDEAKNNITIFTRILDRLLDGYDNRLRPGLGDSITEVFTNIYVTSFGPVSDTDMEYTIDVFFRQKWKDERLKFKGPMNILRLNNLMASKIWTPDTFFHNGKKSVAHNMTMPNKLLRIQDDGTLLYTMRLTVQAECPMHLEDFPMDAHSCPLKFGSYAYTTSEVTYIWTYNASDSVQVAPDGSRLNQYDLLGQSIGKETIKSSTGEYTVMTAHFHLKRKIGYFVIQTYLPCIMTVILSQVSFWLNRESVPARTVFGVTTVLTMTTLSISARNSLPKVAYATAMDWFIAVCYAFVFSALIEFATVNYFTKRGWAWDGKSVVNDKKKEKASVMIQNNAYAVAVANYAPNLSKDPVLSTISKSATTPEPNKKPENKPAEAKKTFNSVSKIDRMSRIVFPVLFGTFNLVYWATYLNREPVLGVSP

Compound: NCCCC(O)(P(=O)(O)O)P(=O)(O)O [ALENDRONIC ACID]
AC50 [1]: > 30 µM | AC50 [2]: > 30 µM

AC50 (Glucocorticoid receptor): > 10 µM
Compound: COc1cccc2c1C(=O)c1c(O)c3c(c(O)c1C2=O)C[C@@](O)(C(C)=O)C[C@@H]3O[C@H]1C[C@H](N)[C@H](O)[C@H](C)O1 [DAUNORUBICIN]

AC50 [3]: > 30 µM
Compound: COC(=O)N[C@@H](C)CNc1nccc(-c2cn(C(C)C)nc2-c2cc(Cl)cc(NS(C)(=O)=O)c2F)n1 [ENCORAFENIB]

AC50 [4]: > 30 µM | AC50 [5]: > 30 µM
Compound: COLISTIN
